Experimental data published in PMC5405701 (ChemMedChem, 2017).
Values joined by “and” are separate entries in the source; they are usually repeats but may differ in a detail not shown here. Identical values can stand only once. Like-named read-outs stand apart in the source and are kept apart here.

Legend:
ERβ = ERβ (Homo sapiens, UniProt Q92731); test: cell-based; type: cell-based; conditions: for Emax: HEK-293T, 24 h, read-out: Agonist Mode ERβ Eff (%E2); for transcriptional activity profile on ERβ: reporter gene assay, HEK293T
ERα = ERα (Homo sapiens, UniProt P03372); test: cell-based; type: cell-based; conditions: for Agonist Mode ERα Eff (%E2): maximal response as percentage of response to 10^−8 M E2, HEK293T; for transcriptional activity profile on ERα: reporter gene assay
[1] = target: human ERβ ligand binding domain (LBD) (Homo sapiens, UniProt Q92731); test: competitive fluorometric; conditions: for β/α: ratio of RBA ERβ to RBA ERα
[2] = test system: MCF-7 breast cancer cells; test: antiproliferative activity, MTT assay, MCF-7; conditions: Homo sapiens, MCF7, 72 h, read-out: MCF-7 Inhibition (%)
VERO cells = test: toxicity to normal cells, MTT assay, VERO
[3] = target: T1, human ERα ligand binding domain (LBD) (Homo sapiens, UniProt P03372); test: competitive fluorometric; conditions: relative to parent 2a (compared to 2a and 4a)
T1 sequence (P03372 311-547 limits assumed): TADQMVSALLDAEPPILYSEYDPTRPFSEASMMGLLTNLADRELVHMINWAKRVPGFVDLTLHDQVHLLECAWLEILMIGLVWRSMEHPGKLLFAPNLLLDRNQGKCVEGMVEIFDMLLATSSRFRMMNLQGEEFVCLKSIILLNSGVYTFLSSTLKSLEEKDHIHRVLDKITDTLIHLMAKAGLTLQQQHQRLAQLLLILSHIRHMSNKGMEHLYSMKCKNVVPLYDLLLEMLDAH

Chain of ERα (P03372 whole entry, the tested form may be a part): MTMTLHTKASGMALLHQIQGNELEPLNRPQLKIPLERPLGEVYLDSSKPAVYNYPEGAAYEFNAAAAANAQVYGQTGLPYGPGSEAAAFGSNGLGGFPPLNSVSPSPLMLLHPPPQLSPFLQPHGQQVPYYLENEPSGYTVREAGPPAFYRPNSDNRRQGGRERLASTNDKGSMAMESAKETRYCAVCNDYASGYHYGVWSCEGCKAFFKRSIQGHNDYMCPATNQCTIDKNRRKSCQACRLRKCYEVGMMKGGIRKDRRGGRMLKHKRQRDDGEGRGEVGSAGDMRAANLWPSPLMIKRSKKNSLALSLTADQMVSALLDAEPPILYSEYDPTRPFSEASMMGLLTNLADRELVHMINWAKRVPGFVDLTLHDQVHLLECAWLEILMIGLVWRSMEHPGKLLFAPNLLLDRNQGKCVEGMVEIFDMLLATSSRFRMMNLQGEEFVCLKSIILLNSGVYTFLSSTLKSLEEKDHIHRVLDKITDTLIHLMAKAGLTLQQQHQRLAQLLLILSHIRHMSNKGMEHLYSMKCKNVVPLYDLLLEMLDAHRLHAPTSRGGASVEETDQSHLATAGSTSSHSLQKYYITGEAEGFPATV
Chain of ERβ (Q92731 whole entry): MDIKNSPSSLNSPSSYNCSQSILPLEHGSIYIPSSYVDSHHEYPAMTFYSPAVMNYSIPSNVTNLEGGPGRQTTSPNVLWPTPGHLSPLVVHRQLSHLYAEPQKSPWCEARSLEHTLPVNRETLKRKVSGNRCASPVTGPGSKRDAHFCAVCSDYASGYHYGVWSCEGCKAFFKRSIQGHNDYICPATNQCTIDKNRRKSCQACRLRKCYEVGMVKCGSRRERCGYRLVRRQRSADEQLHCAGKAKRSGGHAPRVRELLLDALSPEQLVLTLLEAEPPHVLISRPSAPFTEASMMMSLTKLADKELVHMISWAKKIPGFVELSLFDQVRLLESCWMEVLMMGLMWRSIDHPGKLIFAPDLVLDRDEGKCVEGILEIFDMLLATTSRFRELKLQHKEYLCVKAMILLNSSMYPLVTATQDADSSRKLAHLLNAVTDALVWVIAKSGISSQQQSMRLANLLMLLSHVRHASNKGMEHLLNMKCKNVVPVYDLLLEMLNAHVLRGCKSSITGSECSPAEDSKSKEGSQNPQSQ
Chain of human ERβ ligand binding domain (LBD) (Q92731 264-498 limits assumed): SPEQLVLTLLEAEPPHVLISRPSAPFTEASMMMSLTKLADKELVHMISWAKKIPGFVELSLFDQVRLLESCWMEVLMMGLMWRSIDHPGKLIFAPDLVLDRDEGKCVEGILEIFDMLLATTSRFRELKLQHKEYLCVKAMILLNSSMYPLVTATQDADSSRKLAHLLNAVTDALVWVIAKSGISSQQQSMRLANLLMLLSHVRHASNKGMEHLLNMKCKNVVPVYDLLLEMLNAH

Oc1ccc(-c2ccc(-c3ccc(O)cc3)[se]2)cc1 [Compound 2a, 2,5-Bis(4-hydroxyphenyl)selenophene]
Emax (ERβ): 11 ± 4%
transcriptional activity profile on ERβ (ERβ): partial antagonist
Agonist Mode ERα Eff (%E2) (ERα): 16 ± 2 %E2
transcriptional activity profile on ERα (ERα; HEK293T): partial antagonist
β/α [1]: 4.70
inhibition at 10 µM [2]: 0%

Cc1cc(O)ccc1-c1ccc(-c2ccc(O)cc2C)[se]1 [Compound 2b, 2,5-Bis(4-hydroxy-2-methylphenyl)selenophene]
EC50 (ERβ): 79 nM
Emax (ERβ): 82 ± 7%
transcriptional activity profile on ERβ (ERβ): agonist
EC50 (ERα): 1360 nM
efficacy on ERα, times greater than that of estradiol (ERα; agonist mode): 1.5 times
Agonist Mode ERα Eff (%E2) (ERα): 157 ± 12 %E2
transcriptional activity profile on ERα (ERα; HEK293T): superagonist
β/α [1]: 1.98
inhibition at 10 µM [2]: 3.4%

Cc1cc(-c2ccc(-c3ccc(O)c(C)c3)[se]2)ccc1O [Compound 2c, 2,5-Bis(4-hydroxy-3-methylphenyl)selenophene]
Emax (ERβ): 24 ± 3%
transcriptional activity profile on ERβ (ERβ): inactive
Agonist Mode ERα Eff (%E2) (ERα): 33 ± 6 %E2
transcriptional activity profile on ERα (ERα; HEK293T): inactive
β/α [1]: >94
inhibition at 10 µM [2]: 9.3%

Cc1cc(-c2ccc(-c3cc(C)c(O)c(C)c3)[se]2)cc(C)c1O [Compound 2d, 2,5-Bis(4-hydroxy-3,5-dimethylphenyl)selenophene]
Emax (ERβ): 38 ± 6%
transcriptional activity profile on ERβ (ERβ): inactive
Agonist Mode ERα Eff (%E2) (ERα): 12 ± 4 %E2
transcriptional activity profile on ERα (ERα; HEK293T): inactive
β/α [1]: >121
inhibition at 10 µM [2]: 0%

Cc1cc(O)cc(C)c1-c1ccc(-c2c(C)cc(O)cc2C)[se]1 [Compound 2e, 2,5-Bis(4-hydroxy-2,6-dimethylphenyl)selenophene]
EC50 (ERβ): 434 nM
Emax (ERβ): 60 ± 4%
Agonist Mode ERα Eff (%E2) (ERα): −7 ± 3 %E2
β/α [1]: 1.00
inhibition at 10 µM [2]: 19.3%

Oc1ccc(-c2ccc(-c3ccc(O)cc3F)[se]2)c(F)c1 [Compound 2f, 2,5-Bis(2-fluoro-4-hydroxyphenyl)selenophene]
EC50 (ERβ): 170 nM
Emax (ERβ): 71 ± 1%
EC50 (ERα): 230 nM
ERα agonist potency, fold more potent than 2b (ERα; agonist mode, relative to 2b): about 6 fold
Agonist Mode ERα Eff (%E2) (ERα): 68 ± 2 %E2
transcriptional activity profile on ERα (ERα; HEK293T): full ERα agonist
β/α [1]: 4.11
fold better binding to ERβ than 2a ([1]; relative to 2a): 8 fold
inhibition at 10 µM [2]: 10.5%

Oc1ccc(-c2ccc(-c3ccc(O)cc3Cl)[se]2)c(Cl)c1 [Compound 2g, 2,5-Bis(2-chloro-4-hydroxyphenyl)selenophene]
Emax (ERβ): 14 ± 5%
Agonist Mode ERα Eff (%E2) (ERα): 44 ± 13 %E2
EC50 (ERα; read-out: Agonist Mode ERα EC50, compound alone up to 10^−5 M, HEK293T): 1280 nM
β/α [1]: 2.07
inhibition at 10 µM [2]: 19.6%

Oc1ccc(-c2ccc(-c3ccc(O)c(Cl)c3)[se]2)cc1Cl [Compound 2h, 2,5-Bis(3-chloro-4-hydroxyphenyl)selenophene]
Emax (ERβ): 22 ± 8%
EC50 (ERα): 40 nM
Agonist Mode ERα Eff (%E2) (ERα): 49 ± 3 %E2
transcriptional activity profile on ERα (ERα; HEK293T): partial agonist
β/α [1]: 5.10
inhibition at 10 µM [2]: 5.3%

Oc1ccc(F)c(-c2ccc(-c3cc(O)ccc3F)[se]2)c1 [Compound 2i, 2,5-Bis(2-fluoro-5-hydroxyphenyl)selenophene]
EC50 (ERβ): 130 nM
Emax (ERβ): 55 ± 5%
transcriptional activity profile on ERβ (ERβ): partial agonist
Agonist Mode ERα Eff (%E2) (ERα): 25 ± 8 %E2
β/α [1]: 0.90
inhibition at 10 µM [2]: 17.9%

Oc1cc(-c2ccc(-c3ccc(F)c(O)c3)[se]2)ccc1F [Compound 2j, 2,5-Bis(4-fluoro-5-hydroxyphenyl)selenophene]
EC50 (ERβ): 150 nM
Emax (ERβ): 42 ± 10%
transcriptional activity profile on ERβ (ERβ): partial agonist
Agonist Mode ERα Eff (%E2) (ERα): 25 ± 8 %E2
β/α [1]: 3.37
inhibition at 10 µM [2]: 4.4%

CC/C(=C(\c1ccc(O)cc1)c1ccc(OCCN(C)C)cc1)c1ccccc1 [Compound 4OHT, 4-hydroxytamoxifen, reference compound]
toxicity to healthy VERO cells (VERO cells): considerable toxicity
Agonist Mode ERβ Eff (%E2) (ERβ): −1 ± 1 %E2
Antagonist Mode ERβ Eff (%E2) (ERβ): −20 ± 2 %E2
inhibition at 10 µM [2]: 81.7%

Oc1ccc(-c2c[se]cc2-c2ccc(O)cc2)cc1 [Compound 4a, 3,4-Bis(4-hydroxyphenyl)selenophene]
Emax (ERβ): 16 ± 7%
transcriptional activity profile on ERβ (ERβ): antagonist
Agonist Mode ERα Eff (%E2) (ERα): 7 ± 3 %E2
β/α [1]: 6.28
inhibition at 10 µM [2]: 0%

Cc1cc(O)ccc1-c1c[se]cc1-c1ccc(O)cc1C [Compound 4b, 3,4-Bis(4-hydroxy-2-methylphenyl)selenophene]
EC50 (ERβ): 34 nM
Emax (ERβ): 62 ± 8%
Agonist Mode ERα Eff (%E2) (ERα): 19 ± 4 %E2
β/α [1]: 24.81
inhibition at 10 µM [2]: 0%

Cc1cc(-c2c[se]cc2-c2ccc(O)c(C)c2)ccc1O [Compound 4c, 3,4-Bis(4-hydroxy-3-methylphenyl)selenophene]
EC50 (ERβ): 1150 nM
Emax (ERβ): 54 ± 10%
EC50 (ERα): 320 nM
Agonist Mode ERα Eff (%E2) (ERα): 32 ± 8 %E2
β/α [1]: 0.87
inhibition at 10 µM [2]: 0%

Oc1ccc(-c2c[se]cc2-c2ccc(O)c(F)c2)cc1F [Compound 4d, 3,4-Bis(3-fluoro-4-hydroxyphenyl)selenophene]
Emax (ERβ): 21 ± 3%
Agonist Mode ERα Eff (%E2) (ERα): 21 ± 6 %E2
β/α [1]: 2.67
inhibition at 10 µM [2]: 0%

Oc1ccc(-c2c[se]cc2-c2ccc(O)cc2F)c(F)c1 [Compound 4e, 3,4-Bis(2-fluoro-4-hydroxyphenyl)selenophene]
Emax (ERβ): 17 ± 2%
Agonist Mode ERα Eff (%E2) (ERα): 35 ± 5 %E2
β/α [1]: 2.19
inhibition at 10 µM [2]: 0%

Oc1ccc(-c2cc(Br)c(-c3ccc(O)cc3)[se]2)cc1 [Compound 6a, 3-Bromo-2,5-bis(4-hydroxyphenyl)selenophene]
fold increase in binding affinity for ERα over 2a [3]: 8 fold and ~10 fold
EC50 (ERβ): 13 nM
Emax (ERβ): 40 ± 5%
transcriptional activity profile on ERβ (ERβ): partial agonist
EC50 (ERα): 15 nM
Agonist Mode ERα Eff (%E2) (ERα): 69 ± 11 %E2
transcriptional activity profile on ERα (ERα; HEK293T): full agonist
β/α [1]: 2.32
inhibition at 10 µM [2]: 0%

Cc1cc(-c2cc(Br)c(-c3ccc(O)c(C)c3)[se]2)ccc1O [Compound 6c, 3-Bromo-2,5-bis(4-hydroxy-3-methylphenyl)selenophene]
EC50 (ERβ): 441 nM
Emax (ERβ): 46 ± 1%
Agonist Mode ERα Eff (%E2) (ERα): −3 ± 1 %E2
β/α [1]: 4.40
inhibition at 10 µM [2]: 26.1%

Cc1cc(-c2cc(Br)c(-c3cc(C)c(O)c(C)c3)[se]2)cc(C)c1O [Compound 6d, 3-Bromo-2,5-bis(4-hydroxy-3,5-dimethylphenyl)selenophene]
Emax (ERβ): 15 ± 6%
Agonist Mode ERα Eff (%E2) (ERα): 16 ± 4 %E2
β/α [1]: 0.43
inhibition at 10 µM [2]: 26.5%

Oc1ccc(-c2cc(Br)c(-c3ccc(O)c(Cl)c3)[se]2)cc1Cl [Compound 6e, 3-Bromo-2,5-bis(3-chloro-4-hydroxyphenyl)selenophene]
Emax (ERβ): 27 ± 2%
Agonist Mode ERα Eff (%E2) (ERα): −23 ± 3 %E2
β/α [1]: 0.25
inhibition at 10 µM [2]: 11.3%

Oc1cc(-c2cc(Br)c(-c3ccc(F)c(O)c3)[se]2)ccc1F [Compound 6f, 3-Bromo-2,5-bis(4-fluoro-5-hydroxyphenyl)selenophene]
EC50 (ERβ): 300 nM
Emax (ERβ): 31 ± 7%
EC50 (ERα): 120 nM
efficacy on ERα, times greater than that of estradiol (ERα; agonist mode): 2.2 times
Agonist Mode ERα Eff (%E2) (ERα): 226 ± 28 %E2
transcriptional activity profile on ERα (ERα; HEK293T): superagonist
β/α [1]: 0.28
inhibition at 10 µM [2]: 0%

Oc1ccc(-c2cc(Br)c(-c3ccc(O)cc3F)[se]2)c(F)c1 [Compound 6g, 3-Bromo-2,5-bis(2-fluoro-4-hydroxyphenyl)selenophene]
Emax (ERβ): 50 ± 3%
Agonist Mode ERα Eff (%E2) (ERα): 73 ± 9 %E2
β/α [1]: 1.30
inhibition at 10 µM [2]: 8.1%

Oc1ccc(-c2cc(-c3ccc(O)cc3)c(-c3ccc(O)cc3)[se]2)cc1 [Compound 8a, 2,3,5-Tris(4-hydroxyphenyl)selenophene]
Emax (ERβ): 12 ± 3%
transcriptional activity profile on ERβ (ERβ): antagonist
Agonist Mode ERα Eff (%E2) (ERα): −4 ± 3 %E2
transcriptional activity profile on ERα (ERα; HEK293T): antagonist
β/α [1]: 1.15
inhibition at 10 µM [2]: 29.6%

Cc1cc(-c2cc(-c3ccc(O)c(C)c3)c(-c3ccc(O)c(C)c3)[se]2)ccc1O [Compound 8b, 2,3,5-Tris(4-hydroxy-3-methylphenyl)selenophene]
EC50 (ERβ): 33 nM
Emax (ERβ): 77 ± 8%
EC50 (ERα): 320 nM
Agonist Mode ERα Eff (%E2) (ERα): 112 ± 29 %E2
transcriptional activity profile on ERα (ERα; HEK293T): superagonists
β/α [1]: 9.92
inhibition at 10 µM [2]: 16.6%

Cc1cc(-c2cc(-c3cc(C)c(O)c(C)c3)c(-c3cc(C)c(O)c(C)c3)[se]2)cc(C)c1O [Compound 8c, 2,3,5-Tris(4-hydroxy-3,5-dimethylphenyl)selenophene]
toxicity to healthy VERO cells (VERO cells): nontoxic
EC50 (ERβ): 17 nM
Emax (ERβ): 69 ± 5%
EC50 (ERα): 270 nM
Agonist Mode ERα Eff (%E2) (ERα): 74 ± 4 %E2
β/α [1]: 0.55
inhibition at 10 µM [2]: 75.3%
